Results on 16 compounds are retold here after patent US20090093454A1, “Chemical Compounds” (priority 2005, published 2009).

Counter-ions that a name gives are not always drawn.

In this test the test system is HIV-1 gp160 (HXB2 strain) HEK-293 cells fusing with HOS (hCXCR4/hCCR5/hCD4/pHIV-LTR-luciferase) cells. Nature of the test: Cell/cell fusion assay (luciferase). Type of test: cell-based. Conditions: Homo sapiens, HEK (tat/rev/gp160 HXB2) + HOS cells, 24 h, read-out: Fusion assay (pIC50) (converted). An excerpt:
The complete coding sequences of HIV-1 tat (GenBank Accession No. X07861) and rev (GenBank Accession No. M34378) were cloned into pcDNA3.1 expression vectors containing G418 and hygromycin resistance genes, respectively. The complete coding sequence of the HIV-1 (HXB2 strain) gp160 envelope gene (nucleotide bases 6225-8795 of GenBank Accession No. K03455) was cloned into plasmid pCRII-TOPO. The three HIV genes were additionally inserted into the baculovirus shuttle vector, pFastBacMam1, under the transcriptional control of the CMV promoter. A construction of the pHIV-I LTR containing mutated NFkB sequences linked to the luciferase reporter gene was prepared by digesting pcDNA3.1, containing the G418 resistance gene, with Nru I and Bam HI to remove the CMV promoter. LTR-luc was then cloned into the Nru I/Bam HI sites of the plasmid vector. Plasmid preparations were performed after the plasmids were amplified in Escherichia coli strain DH5-alpha. The fidelity of the inserted sequences was confirmed by double-strand nucleotide sequencing using an ABI Prism Model 377 automated sequencer.
Recombinant BacMam baculoviruses were constructed from pFastBacMam shuttle plasmids by using the bacterial cell-based Bac-to-Bac system. Viruses were propagated in Sf9 (Spodoptera frugiperda) cells cultured in Hink's TNM-FH Insect media supplemented with 10% (v/v) fetal bovine serum and 0.1% (v/v) pluronic F-68 according to established protocols.
Human osteosarcoma (HOS) cells that naturally express human CXCR4 were transfected with human CCR5, human CD4 and the pHIV-LTR-luciferase plasmid using FuGENE 6 transfection reagent. Single cells were isolated and grown under selection condition in order to generate a stable HOS (hCXCR4/hCCR5/hCD4/pHIV-LTR-luciferase) clonal cell line. The cells were maintained in Dulbeccos modified Eagles media supplemented with 10% fetal calf serum (FCS), G418 (400 ug/ml), puromycin (1 ug/ml), mycophenolic acid (40 ug/ml), xanthine (250 ug/ml) and hypoxanthine (13.5 ug/ml) to maintain a selection pressure for cells expressing the LTR-luciferase, hCCR5 and hCD4, respectively. Human embryonic kidney (HEK-293) cells stably transfected to express the human macrophage scavenging receptor (Class A, type 1; GenBank Accession No. D90187), were maintained in DMEM/F-12 media (1:1) supplemented with 10% FCS and 1.5 ug/ml puromycin. The expression of this receptor by the HEK-293 cells enhances their ability to stick to tissue culture treated plasticware.
HEK-293 cells were harvested using enzyme-free cell dissociation buffer. The cells were resuspended in DMEM/F-12 media supplemented with 10% FCS and 1.5 ug/ml and counted. Tranductions were performed by direct addition of BacMam baculovirus containing insect cell media to cells. The cells were simultaneously transduced with BacMam baculovirus expressing HIV-1 tat, HIV-1 rev and HIV-1 gp160 (from the HXB2 HIV strain). Routinely an MOI of 10 of each virus was added to the media containing the cells. 2 mM butyric acid was also added to the cells at this stage to increase protein expression in transduced cells. The cells were subsequently mixed and seeded into a flask at 30 million cells per T225. The cells were incubated at 37° C., 5% CO2, 95% humidity for 24 h to allow for protein expression.
HEK and HOS cells were harvested in DMEM/F-12 media containing 2% FCS and DMEM media containing 2% FCS, respectively, with no selection agents added. Compounds were plated as 1 ul spots in 100% DMSO on a 96-well CulturPlate plates. HOS cells (50 ul) were added first to the wells, followed immediately by the HEK cells (50 ul). The final concentration of each cell type was 20,000 cells per well. Following these additions, the cells were returned to a tissue culture incubator (37° C.; 5% CO2/95% air) for an additional 24 h.
Following the 24 h incubation, total cellular luciferase activity was measured using the LucLite Plus assay kit (Packard, Meridien, Conn.). […]
Take `c1cnc2c(c1)CC[C@H]1CCCN(Cc3nc4ccccc4[nH]3)[C@H]21` (racemic) [Example 6, (trans)-1-(1H-Benzimidazol-2-ylmethyl)-1,2,3,4,4a,5,6,10b-octahydro-1,10-phenanthroline]: the IC50 was 1120 nM.

As for `CN(C)CCCn1c(CN2CCC[C@@H]3CCc4cccnc4[C@@H]32)nc2ccccc21` [Example 11A, (3-{2-[(4aS,10bR)-3,4,4a,5,6,10b-Hexahydro-1,10-phenanthrolin-1(2H)-ylmethyl]-1H-benzimidazol-1-yl}propyl)dimethylamine], the IC50 was 1260 nM.

`CN1CCN(c2cccc3nc(CN4CCC[C@@H]5CCc6cccnc6[C@H]54)cn23)CC1` (racemic) [Example 15A, (trans)-1-{[5-(4-Methyl-1-piperazinyl)imidazo[1,2-a]pyridin-2-yl]methyl}-1,2,3,4,4a,5,6,10b-octahydro-1,10-phenanthroline]: the IC50 was 77.6 nM.

With `CN(C)CCCn1c(CN2CCC[C@H]3CCc4cccnc4[C@H]32)nc2ccccc21` [Example 11B, (3-{2-[(4aR,10bS)-3,4,4a,5,6,10b-Hexahydro-1,10-phenanthrolin-1(2H)-ylmethyl]-1H-benzimidazol-1-yl}propyl)dimethylamine], the IC50 is 25.1 nM.

For the compound `CN1CCN(c2cccc3nc(CN4CCC[C@@H]5CCc6cccnc6[C@@H]54)cn23)CC1` [Example 22, (4aS,10bR)-1-{[5-(4-Methyl-1-piperazinyl)imidazo[1,2-a]pyridin-2-yl]methyl}-1,2,3,4,4a,5,6,10b-octahydro-1,10-phenanthroline], the IC50 is 158 nM.

Turning to `CN1CCN(c2cccc3nc(CN4CCC[C@H]5CCc6cccnc6[C@H]54)cn23)CC1` (racemic) [Example 15B, (cis)-1-{[5-(4-Methyl-1-piperazinyl)imidazo[1,2-a]pyridin-2-yl]methyl}-1,2,3,4,4a,5,6,10b-octahydro-1,10-phenanthroline], the IC50 is 5.5 nM.

For the compound `CN1CCN(c2cccc3nc(CN4CCC[C@H]5CCc6cccnc6[C@H]54)[nH]c23)CC1` (racemic) [Example 33, (cis)-1-{[4-(4-Methyl-1-piperazinyl)-1H-benzimidazol-2-yl]methyl}-1,2,3,4,4a,5,6,10b-octahydro-1,10-phenanthroline], the IC50 is 0.398 nM.

Regarding `CN(C)CCCn1c(CN2CCC[C@@H]3CCc4cccnc4[C@H]32)nc2ccccc21` (stereo in doubt) [Example 10B, (3-{2-[(4aS,10bS)-3,4,4a,5,6,10b-Hexahydro-1,10-phenanthrolin-1(2H)-ylmethyl]-1H-benzimidazol-1-yl}propyl)dimethylamine], the IC50 was 200 nM.

Consider `NCCCn1c(CN2CCC[C@H]3CCc4cccnc4[C@H]32)nc2ccccc21` (racemic) [Example 9, (cis)-3-[2-(3,4,4a,5,6,10b-Hexahydro-1,10-phenanthrolin-1(2H)-ylmethyl)-1H-benzimidazol-1-yl]-1-propanamine], for which the IC50 is 89.1 nM.

For the compound `c1cnc2c(c1)CC[C@@H]1CCCN(Cc3nc4ccccc4n3Cc3ccncc3)[C@H]21` (racemic) [Example 12, (cis)-1-{[1-(4-Pyridinylmethyl)-1H-benzimidazol-2-yl]methyl}-1,2,3,4,4a,5,6,10b-octahydro-1,10-phenanthroline], the IC50 is 7940 nM.

Turning to `CN1CCN(c2cccc3nc(CN4CCC[C@H]5CCc6cccnc6[C@H]54)cn23)CC1` [Example 27, (4aR,10bS)-1-{[5-(4-Methyl-1-piperazinyl)imidazo[1,2-a]pyridin-2-yl]methyl}-1,2,3,4,4a,5,6,10b-octahydro-1,10-phenanthroline], the IC50 is 1.26 nM.

For `c1cnc2c(c1)CC[C@@H]1CCCN(Cc3nc4ccccc4[nH]3)[C@H]21` (racemic) [Example 7, (cis)-1-(1H-Benzimidazol-2-ylmethyl)-1,2,3,4,4a,5,6,10b-octahydro-1,10-phenanthroline], the IC50 was 3160 nM.

Take `NCCCn1c(CN2CCC[C@@H]3CCc4cccnc4[C@H]32)nc2ccccc21` (racemic) [Example 8, (trans)-3-[2-(3,4,4a,5,6,10b-Hexahydro-1,10-phenanthrolin-1(2H)-ylmethyl)-1H-benzimidazol-1-yl]-1-propanamine]: the IC50 is 490 nM.

On to `CN1CCN(c2cccc3[nH]c(CN4CCC[C@@H]5CCc6cccnc6[C@H]54)nc23)CC1` (racemic) [Example 32, (trans)-1-{[4-(4-Methyl-1-piperazinyl)-1H-benzimidazol-2-yl]methyl}-1,2,3,4,4a,5,6,10b-octahydro-1,10-phenanthroline trifluoroacetate], for which the IC50 was 200 nM.

Consider `CN1CCCC(Cn2c(CN3CCC[C@H]4CCc5cccnc5[C@H]43)nc3ccccc32)C1` (mixture of isomers) [Example 13, (cis)-1-({1-[(1-Methyl-3-piperidinyl)methyl]-1H-benzimidazol-2-yl}methyl)-1,2,3,4,4a,5,6,10b-octahydro-1,10-phenanthroline], for which the IC50 is 31.6 nM.

For the compound `CN(C)CCCn1c(CN2CCC[C@H]3CCc4cccnc4[C@@H]32)nc2ccccc21` (stereo in doubt) [Example 10A, (3-{2-[(4aR,10bR)-3,4,4a,5,6,10b-Hexahydro-1,10-phenanthrolin-1(2H)-ylmethyl]-1H-benzimidazol-1-yl}propyl)dimethylamine], the IC50 was 417 nM.
